Where two headings read alike, the source gives them in different places.
How the values were obtained:
[1] = test system: HUVEC intracellular acid phosphatase; type: biochemical, human
[2] = test system: HDMEC intracellular acid phosphatase; assay: acid phosphatase assay of HDMEC with AttoPhos/BBTP; type: biochemical, human; conditions: for Fluorescence: A/2 plate
Experimental: (§1) To establish a relation between acid phosphatase activity and cell numbers, cells were seeded at various densities (50-20,000) onto replicate plastic 96-well plates or half area 96-well microtiter plates (Costar) and incubated at 37° C. for 3.5 hours to allow attachment. Cell number was then assessed by measuring intracellular acid phosphatase with three different substrates: p-nitrophenyl phosphate, which has a calorimetric endpoint, 4-methylumbelliferyl phosphate (MUP) and 2'-[2-benzthiazoyl]-6'-hydoxybenzothiazole phosphate bis-[2-amino-2-methyl-13-propanediol] salt (AttoPhos™), which have fluorometric endpoints.
(§2) Plates were incubated for 1 hour at room temperature and the reaction was terminated with 50 μL of stop solution (240 mM diethanolamine, pH 10). Fluorescence was measured at excitation wavelength of 450 nm and emission wavelength of 580 nm using a fluorimeter (Cytofluor 4000, PerSeptive Biosystems). Nonenzymatic hydrolysis was determined in wells containing no cells and subtracted from the experimental values. Since the background is subtracted, in general, the actual signal to noise ratios at lower cell numbers is better than what presented in the table.

[3] = test system: CHO-K1 acid phosphatase; assay: acid phosphatase assay of CHO-K1 with AttoPhos/BBTP; type: biochemical, Chinese hamster; conditions: for Fluorescence: A/2 plate
Experimental: as §1, §2

[4] = test system: 3T3 cells acid phosphatase; assay: acid phosphatase assay of 3T3 cells with AttoPhos/BBTP; type: biochemical, mouse; conditions: for Fluorescence: 96-well plate, AttoPhos 500 μM
Experimental: as §1
as §2, with “After washing with D-PBS, 150 μL 0.5 mM AttoPhos™ in 0.1 M Tris-citrate (0.1 M Tris-base, 0.1 M citric acid, pH 6.5 containing 0.25% Triton X-100) was added to each well and placed on an orbital shaker for 5 minutes as described for MUP. Plates” for “Plates”

[5] = test system: T47-D acid phosphatase; assay: Km of substrate for acid phosphatase, T47-D; type: biochemical; conditions: T47-D human breast carcinoma; BBTP 1.5 mM, 1 h at RT
Description: (§3) Km of substrate for acid phosphatase for a variety of cells

[6] = test system: K562 acid phosphatase; assay: Km of substrate for acid phosphatase, K562; type: biochemical; conditions: K562 suspension, human chronic myelogenous leukemia; BBTP 1 mM, 1 h at RT
Description: as §3

[7] = test system: HL-60 acid phosphatase; assay: Km of substrate for acid phosphatase, HL-60; type: biochemical; conditions: HL-60 suspension, human promyelocytic leukemia; BBTP 1 mM, 1 h at RT
Description: as §3

[8] = test system: 2008 acid phosphatase; assay: Km of substrate for acid phosphatase, 2008; type: biochemical; conditions: 2008 human ovarian carcinoma; BBTP 1 mM, 1 h at RT
Description: as §3

[9] = test system: Molt-4 acid phosphatase; assay: Km of substrate for acid phosphatase, Molt-4; type: biochemical; conditions: Molt-4 suspension, human acute lymphoblastic leukemia; BBTP 1 mM, 1 h at RT
Description: as §3

[10] = test system: acid phosphatases; assay: Km of BBTP for acid phosphatases; type: biochemical; conditions: see EXAMPLES
Description: as §3

[11] = test system: Alkaline phosphatase; conditions: reported in U.S. Pat. No. 5,424,440; read-out: Km of the substrate with alkaline phosphatase; cited from earlier work

O=P(O)(O)Oc1ccc2nc(-c3nc4ccccc4s3)sc2c1 [BBTP, 2'(2-benzothiazoyl)-6'-hydroxy-benzthiazole phosphate]
Fluorescence ([1]; 625 HUVEC/well, 96-well plate, AttoPhos 250 μM): 1695 ± 65 RFU
Fluorescence ([1]; 625 HUVEC/well, 96-well plate, AttoPhos 500 μM): 1561 ± 39 RFU
Fluorescence ([1]; 625 HUVEC/well, half area 96-well (A/2) plate, AttoPhos 250 μM): 1867 ± 68 RFU
Fluorescence ([1]; 625 HUVEC/well, half area 96-well (A/2) plate, AttoPhos 500 μM): 2040 ± 55 RFU
Fluorescence ([1]; 1,250 HUVEC/well, 96-well plate, AttoPhos 250 μM): 2853 ± 180 RFU
Fluorescence ([1]; 1,250 HUVEC/well, 96-well plate, AttoPhos 500 μM): 2737 ± 106 RFU
Fluorescence ([1]; 1,250 HUVEC/well, half area 96-well (A/2) plate, AttoPhos 250 μM): 3438 ± 132 RFU
Fluorescence ([1]; 1,250 HUVEC/well, half area 96-well (A/2) plate, AttoPhos 500 μM): 3757 ± 132 RFU
Fluorescence ([1]; 2,500 HUVEC/well, 96-well plate, AttoPhos 250 μM): 5019 ± 188 RFU
Fluorescence ([1]; 2,500 HUVEC/well, 96-well plate, AttoPhos 500 μM): 5186 ± 125 RFU
Fluorescence ([1]; 2,500 HUVEC/well, half area 96-well (A/2) plate, AttoPhos 250 μM): 6664 ± 128 RFU
Fluorescence ([1]; 2,500 HUVEC/well, half area 96-well (A/2) plate, AttoPhos 500 μM): 7046 ± 240 RFU
Fluorescence ([1]; 5,000 HUVEC/well, 96-well plate, AttoPhos 250 μM): 10578 ± 119 RFU
Fluorescence ([1]; 5,000 HUVEC/well, 96-well plate, AttoPhos 500 μM): 10406 ± 498 RFU
Fluorescence ([1]; 5,000 HUVEC/well, half area 96-well (A/2) plate, AttoPhos 250 μM): 12807 ± 399 RFU
Fluorescence ([1]; 5,000 HUVEC/well, half area 96-well (A/2) plate, AttoPhos 500 μM): 14586 ± 498 RFU
Fluorescence ([1]; 10,000 HUVEC/well, 96-well plate, AttoPhos 250 μM): 20670 ± 967 RFU
Fluorescence ([1]; 10,000 HUVEC/well, 96-well plate, AttoPhos 500 μM): 21198 ± 240 RFU
Fluorescence ([1]; 10,000 HUVEC/well, half area 96-well (A/2) plate, AttoPhos 250 μM): 25684 ± 1488 RFU
Fluorescence ([1]; 10,000 HUVEC/well, half area 96-well (A/2) plate, AttoPhos 500 μM): 28302 ± 448 RFU
Fluorescence ([1]; 20,000 HUVEC/well, 96-well plate, AttoPhos 250 μM): 37889 ± 501 RFU
Fluorescence ([1]; 20,000 HUVEC/well, 96-well plate, AttoPhos 500 μM): 38528 ± 1540 RFU
Fluorescence ([1]; 20,000 HUVEC/well, half area 96-well (A/2) plate, AttoPhos 250 μM): 46409 ± 1009 RFU
Fluorescence ([1]; 20,000 HUVEC/well, half area 96-well (A/2) plate, AttoPhos 500 μM): 49706 ± 790 RFU
Km ([1]; HUVEC, BBTP 0.5 mM, 1 h at RT): 88 µM
Fluorescence ([2]; 50 HDMEC/well, AttoPhos 100 μM): 829 ± 26 RFU
Fluorescence ([2]; 50 HDMEC/well, AttoPhos 250 μM): 1014 ± 80 RFU
Fluorescence ([2]; 50 HDMEC/well, AttoPhos 500 μM): 1496 ± 4.6 RFU
Fluorescence ([2]; 100 HDMEC/well, AttoPhos 100 μM): 1609 ± 157 RFU
Fluorescence ([2]; 100 HDMEC/well, AttoPhos 250 μM): 1545 ± 253 RFU
Fluorescence ([2]; 100 HDMEC/well, AttoPhos 500 μM): 2032 ± 97 RFU
Fluorescence ([2]; 250 HDMEC/well, AttoPhos 100 μM): 2347 ± 209 RFU
Fluorescence ([2]; 250 HDMEC/well, AttoPhos 250 μM): 2383 ± 24 RFU
Fluorescence ([2]; 250 HDMEC/well, AttoPhos 500 μM): 3686 ± 270 RFU
Fluorescence ([2]; 500 HDMEC/well, AttoPhos 100 μM): 3682 ± 263 RFU
Fluorescence ([2]; 500 HDMEC/well, AttoPhos 250 μM): 3998 ± 313 RFU
Fluorescence ([2]; 500 HDMEC/well, AttoPhos 500 μM): 6404 ± 665 RFU
Fluorescence ([2]; 1,000 HDMEC/well, AttoPhos 100 μM): 6653 ± 483 RFU
Fluorescence ([2]; 1,000 HDMEC/well, AttoPhos 250 μM): 7594 ± 411 RFU
Fluorescence ([2]; 1,000 HDMEC/well, AttoPhos 500 μM): 9822 ± 930 RFU
Fluorescence ([2]; 2,500 HDMEC/well, AttoPhos 100 μM): 15566 ± 167 RFU
Fluorescence ([2]; 2,500 HDMEC/well, AttoPhos 250 μM): 13382 ± 310 RFU
Fluorescence ([2]; 2,500 HDMEC/well, AttoPhos 500 μM): 20580 ± 436 RFU
Fluorescence ([2]; 5,000 HDMEC/well, AttoPhos 100 μM): 28018 ± 817 RFU
Fluorescence ([2]; 5,000 HDMEC/well, AttoPhos 250 μM): 25468 ± 843 RFU
Fluorescence ([2]; 5,000 HDMEC/well, AttoPhos 500 μM): 34112 ± 1797 RFU
Fluorescence ([2]; 10,000 HDMEC/well, AttoPhos 100 μM): 35787 ± 1325 RFU
Fluorescence ([2]; 10,000 HDMEC/well, AttoPhos 250 μM): 40725 ± 1850 RFU
Fluorescence ([2]; 10,000 HDMEC/well, AttoPhos 500 μM): 54430 ± 133 RFU
Km ([2]; HDMEC, BBTP 1.5 mM, 1 h at RT, read-out: Km): 80 µM
Km ([2]; human dermal microvascular endothelial cells, read-out: apparent Km): ~100 µM
Fluorescence ([3]; 250 CHO-K1/well, AttoPhos 100 μM): 552 ± 26 RFU
Fluorescence ([3]; 250 CHO-K1/well, AttoPhos 250 μM): 683 ± 36 RFU
Fluorescence ([3]; 250 CHO-K1/well, AttoPhos 500 μM): 721 ± 90 RFU
Fluorescence ([3]; 500 CHO-K1/well, AttoPhos 100 μM): 790 ± 70 RFU
Fluorescence ([3]; 500 CHO-K1/well, AttoPhos 250 μM): 1008 ± 21 RFU
Fluorescence ([3]; 500 CHO-K1/well, AttoPhos 500 μM): 1010 ± 126 RFU
Fluorescence ([3]; 1,000 CHO-K1/well, AttoPhos 100 μM): 1031 ± 138 RFU
Fluorescence ([3]; 1,000 CHO-K1/well, AttoPhos 250 μM): 1296 ± 64 RFU
Fluorescence ([3]; 1,000 CHO-K1/well, AttoPhos 500 μM): 1400 ± 47 RFU
Fluorescence ([3]; 2,000 CHO-K1/well, AttoPhos 100 μM): 2179 ± 156 RFU
Fluorescence ([3]; 2,000 CHO-K1/well, AttoPhos 250 μM): 2628 ± 148 RFU
Fluorescence ([3]; 2,000 CHO-K1/well, AttoPhos 500 μM): 2936 ± 382 RFU
Fluorescence ([3]; 4,000 CHO-K1/well, AttoPhos 100 μM): 3905 ± 234 RFU
Fluorescence ([3]; 4,000 CHO-K1/well, AttoPhos 250 μM): 4162 ± 122 RFU
Fluorescence ([3]; 4,000 CHO-K1/well, AttoPhos 500 μM): 4832 ± 357 RFU
Fluorescence ([3]; 8,000 CHO-K1/well, AttoPhos 100 μM): 7785 ± 684 RFU
Fluorescence ([3]; 8,000 CHO-K1/well, AttoPhos 250 μM): 8356 ± 237 RFU
Fluorescence ([3]; 8,000 CHO-K1/well, AttoPhos 500 μM): 9138 ± 440 RFU
Fluorescence ([3]; 12,000 CHO-K1/well, AttoPhos 100 μM): 12481 ± 462 RFU
Fluorescence ([3]; 12,000 CHO-K1/well, AttoPhos 250 μM): 12959 ± 124 RFU
Fluorescence ([3]; 12,000 CHO-K1/well, AttoPhos 500 μM): 12198 ± 83 RFU
Km ([3]; CHO-K1 Chinese hamster ovary, BBTP 0.5 mM, 1 h at RT): 172 µM
Fluorescence ([4]; 250 3T3 cells/well): 1866 ± 100 RFU
Fluorescence ([4]; 500 3T3 cells/well): 3194 ± 172 RFU
Fluorescence ([4]; 1,000 3T3 cells/well): 6149 ± 176 RFU
Fluorescence ([4]; 2,000 3T3 cells/well): 10115 ± 840 RFU
Fluorescence ([4]; 4,000 3T3 cells/well): 21314 ± 1558 RFU
Fluorescence ([4]; 8,000 3T3 cells/well): 44831 ± 1793 RFU
Fluorescence ([4]; 10,000 3T3 cells/well): 49860 ± 556 RFU
Km ([4]; NIH 3T3 mouse embryonic fibroblasts, BBTP 0.5 mM, 1, at RT): 87 µM
Km [5]: 261 µM
Km [6]: 82 µM
Km [7]: 108 µM
Km [8]: 106 µM
Km [9]: 130 µM
Km [10]: ~100 µM
Km [11]: ~2000 µM

From patent US5972639A, “Fluorescence-based assays for measuring cell proliferation” (Irori, priority 1997, dated 1999)
